Measurements taken from patent US10273240B2, “Cortistatin analogues, syntheses, and uses thereof” (President and Fellows of Harvard College, priority 2015, dated 2019).
Read-outs that look alike come from different tables or passages of the source.

Experiments:
Assay type in all cases: cell-based
[1] = test system: MV4;11; assay: Cell growth assay, MV4;11; settings: Homo sapiens
Method: (§1) All media was supplemented with 100 U/mL penicillin and 100 μg/mL streptomycin. Human cancer cell lines were grown in the following media: MV4; 11, K562, MOLM-14 in RPMI-1640, 10% FBS; SKNO-1 in RPMI-1640, 10% FBS, and 10 ng/mL GM-CSF; MV4;11 and K562 were from ATCC. SKNO-1 was from DSMZ.
(§2) Cell Culture. All media was supplemented with 100 U/mL penicillin and 100 μg/mL streptomycin. Human cancer cell lines were grown in the following media: MV4; 11, RS4; 11, K562, HEL, MOLM-14, MEG-01 in RPMI-1640, 10% FBS; SET-2 in RPMI-1640, 20% FBS; UKE-1 in RPMI-1640, 10% FBS, 10% horse serum and 1 μM hydrocortisone; SKNO-1 and TF-1 in RPMI-1640, 10% FBS, and 10 or 2 ng/mL GM-CSF, respectively; HaCaT in DMEM, 10% FBS; and HCT116 in McCoy's 5 A, 10% FBS (proliferation assay) or DMEM, 10% FBS (gene expression study). HepG2, MV4;11, RS4;11, MEG-01, TF-1, HCT116 and K562 were from ATCC. SKNO-1 was from DSMZ. HEL, UKE-1, and SET-2 were provided by Ross L. Levine and HaCaT, MV4;11-mCLP, and MOLM-14 by Van Wilson, Andrew L. Kung, and Scott A. Armstrong, respectively. MOLM-14 cells were authenticated by STR profiling and flow cytometry and all cell lines were routinely tested and found to be negative for mycoplasma.

[2] = test system: SET-2; assay: Cell growth assay, SET-2; settings: Homo sapiens, SET-2, 72 h, read-out: Mean GI50 (nM), SET-2
Method: as §2

[3] = test system: HEL; assay: Cell growth assay, HEL; settings: Homo sapiens, 72 h, read-out: Mean GI50 (nM), HEL
Method: as §2

[4] = test system: MEG-01; assay: Cell growth assay, MEG-01; settings: Homo sapiens, MEG-01, 72 h, read-out: Mean GI50 (nM), MEG-01
Method: as §2

[5] = test system: TF-1; assay: Cell growth assay, TF-1; settings: Homo sapiens, TF-1, 72 h, read-out: Mean GI50 (nM), TF-1
Method: as §2

[6] = test system: K562; assay: Cell growth assay, K562; settings: Homo sapiens
Method: as §1, §2

[7] = test system: SKNO-1; assay: Cell growth assay, SKNO-1; settings: Homo sapiens
Method: as §1, §2

[8] = test system: RS4;11; assay: Cell growth assay, RS4;11; settings: Homo sapiens, RS4-11, 72 h, read-out: Mean GI50 (nM), RS4;11
Method: as §2

[9] = test system: MOLM-14; assay: Cell growth assay, MOLM-14; settings: Homo sapiens
Method: as §1, §2

GI50 ([1]; MV4-11, 240 h, read-out: MV4;11 GI50 day 10) [nM] | GI50 ([6]; K562, 240 h, read-out: K562 GI50 day 10) [nM] | GI50 ([7]; SKNO-1, 240 h, read-out: SKNO-1 GI50 day 10) [nM] | GI50 ([9]; MOLM-14, 240 h, read-out: MOLM14 GI50 day 10) [nM] | Structure (SMILES) | GI50 ([1]; MV4-11, 72 h, I-BET151, after 3 days, read-out: Mean GI50 (nM), MV4;11) [nM] | GI50 [2] [nM] | GI50 [3] [nM] | GI50 [4] [nM] | GI50 [5] [nM] | GI50 ([6]; K562, 72 h, I-BET151, after 3 days, read-out: Mean GI50 (nM), K562) [nM] | GI50 ([7]; SKNO-1, 72 h, I-BET151, after 3 days, read-out: Mean GI50 (nM), SKNO-1) [nM] | GI50 [8] [nM] | GI50 ([9]; MOLM-14, 72 h, I-BET151, after 3 days, read-out: Mean GI50 (nM), MOLM-14) [nM]
– | – | – | – | COc1cc2c(cc1-c1c(C)noc1C)ncc1[nH]c(=O)n([C@H](C)c3ccccn3)c12 [I-BET151] | 20 | 245 | 200 | 375 | 163 | 750 | 50 | 200 | 18
3.75 | > 1000 | 0.6 | 17.5 | C[C@]12CC=C3C=C4CCC(=O)NC[C@]45CC[C@]3(O5)[C@@H]1CC[C@@H]2c1ccc2ccncc2c1 [Compound 15B] | – | – | – | – | – | – | – | – | –
